Data set [1] can be described thus: Assay (IV) determination of solubility. The format is physicochemical. How it is done:
Assay (IV)—Determination of Solubility
The mimylin peptide was dissolved in water at ˜500 nmol/ml and mixed 1:1 with a series of buffers (100 mM glycylglycine pH 3.0, 100 mM glycylglycine pH 4.0, 100 mM glycylglycine pH 5.0, 100 mM bistrispropane pH 6.0, 100 mM bistrispropane pH 6.5, 100 mM bistrispropane pH 7.0, 100 mM bistrispropane pH 7.5, 100 mM bistrispropane pH 8.0).

Data set [2] is described as follows: Assay (X) pK, T½ in rat. The data set is classed as in vivo, Sprague Dawley rats. Conditions: for PK rat iv T½: i.v.; for PK rat sc T½: s.c. How it is done: Assay (X)—pK—Determination of T½ in Rat
Pharmacokinetic (PK) studies rats were conducted in order to determine the T½ of mimylin peptide after i.v. and s.c. administration.
T½ values of the mimylin derivates of the invention is determined by pharmacokinetic studies in Sprague Dawley male rats, from Taconic Europe and the principles of laboratory animal care are followed.
An acclimatisation period of approximately 7 days was allowed before the animals entered the study. At start of the acclimatisation period the rats were in the weight range of 250-400 g.
The studies were conducted in an animal room which was illuminated to give a cycle of approximately 12 hours light and 12 hours darkness. The animals were group housed and had food and water ad lib. The animals were weighed on the days of dosing.
In the present studies the test substances were administered subcutaneously or intravenously in approximately 20 nmol/kg dose. The animals received a single subcutaneous injection to the neck for subtaneous administration or directly into the tail vein for intravenous administration. Each test substance was given to typically three but in some cases two or four animals.
A full plasma concentration-time profile, employing 8-10 sampling points, was obtained from each animal. In example blood samples were collected according to the following schedule: After subcutaneous or intravenous administration:
At each sampling time, 0.08 to 0.10 ml of blood was drawn from each animal. The blood samples were taken in the sublingual vein via venous puncture and the use of a capillary tube.
The blood samples were stabilised with EDTA. Blood samples were kept on ice for max 20 min. before centrifugation. Plasma was separated using centrifugation (i.e. at 4° C., 10 min., 1500G) and was immediately transferred to Micronic tubes or PCR plates. Approximately 40 μl plasma was transferred and was stored at −20° C. until assayed. The plasma samples were assayed for the content of mimylin compound by LCMS
The plasma concentration-time profiles were analysed by a non-compartmental pharmacokinetic analysis (NCA) using Phoenix WinNonlin 6.3 (Pharsight Inc., Mountain View, Calif., USA). NCA was performed using the individual plasma concentration-time profiles from each animal. T½ is the terminal half-life=In2/λz and was determined from λz, the first order rate constant associated with the terminal (log-linear) portion of the curve, estimated by linear regression of time vs. log concentration.

A short description of data set [3]: Assay (IX) pK, T½ in mini-pig. The format is in vivo, Göttingen mini-pigs. The conditions noted are these: i.v. In outline:
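Female Göttingen mini-pigs (5–12 months, 15–35 kg, fed freely) received a single i.v. dose of approximately 5 nmol/kg via central venous catheter, typically n=3. Plasma was sampled from pre-dose to 240 h (sometimes 288 h) and quantified by LC-MS. T½ was derived by non-compartmental analysis from the terminal log-linear slope (ln2/λz).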

The text below walks through data of patent US9593149B2, “Amylin and calcitonin receptor agonist” (Novo Nordisk A/S, priority 2014, dated 2017).

Numbered stars: 1 amine (or outer) side, 2 acyl side, 3 side chain; on linkers, the order of the positions; unused ones are H or OH. Peptide text beside a SMILES is read from it. * marks the point of attachment. C16 diacid = O=C(O)CCCCCCCCCCCCCCC(=O)*; γGlu = O=C(O)[C@H](CCC(=O)[*:2])N[*:1]; C14 diacid = O=C(O)CCCCCCCCCCCCC(=O)*; AEEA = NCCOCCOCC(=O)O

For the molecule `CC(C)C[C@H](NC(=O)[C@H](C)NC(=O)[C@H](C)NC(=O)[C@@H](NC(=O)[C@H](CO)NC(=O)[C@H](CC(C)C)NC(=O)[C@H](CCC(=O)O)NC(=O)[C@H](CO)NC(=O)[C@H](C)NC(=O)[C@H](CCC(=O)O)NC(=O)COCCOCCNC(=O)COCCOCCNC(=O)COCCOCCNC(=O)COCCOCCNC(=O)CC[C@H](NC(=O)CC[C@H](NC(=O)CCCCCCCCCCCCC(=O)O)C(=O)O)C(=O)O)[C@@H](C)O)C(=O)NCC(=O)N[C@@H](CCCNC(=N)N)C(=O)N[C@@H](CC(C)C)C(=O)N[C@@H](CO)C(=O)N[C@@H](C)C(=O)N[C@@H](CCC(=O)O)C(=O)N[C@@H](CC(C)C)C(=O)N[C@@H](Cc1cnc[nH]1)C(=O)N[C@@H](CCC(=O)O)C(=O)N[C@@H](CC(C)C)C(=O)N[C@@H](C)C(=O)N[C@H](C(=O)N[C@@H](CC(C)C)C(=O)N1CCC[C@H]1C(=O)N[C@@H](CCCNC(=N)N)C(=O)N[C@H](C(=O)N[C@@H](CCC(=O)O)C(=O)N[C@H](C(=O)NCC(=O)N1CCC[C@H]1C(=O)N[C@@H](CCC(=O)O)C(=O)N[C@@H](CO)C(=O)N1CCC[C@H]1C(N)=O)[C@@H](C)O)[C@@H](C)O)[C@@H](C)O` [compound 5, [N-terminal(C14 diacid-2xgGlu-4xOEG)]mimylin] ({C14 diacid-γGlu-γGlu-AEEA-AEEA-AEEA-AEEA}-EASELSTAALGRLSAELHELATLPRTETGPESP-NH2), the Solubility result in data set [1] (pH 3.0), in data set [1] (pH 4.0), in data set [1] (pH 5.0), in data set [1] (pH 6.0), in data set [1] (pH 6.5) and in data set [1] (pH 7.0) was “≧200 μM” in each case. Also, the Solubility entry in data set [1] (pH 7.5) and in data set [1] (pH 8.0) was “≧200 μM” throughout. Further, the “PK rat iv T½” value in data set [2] is 6 h. Besides, in data set [2], the “PK rat sc T½” value amounted to 13 h.

As for `CC(C)C[C@H](NC(=O)[C@H](C)NC(=O)[C@H](C)NC(=O)[C@@H](NC(=O)[C@H](CO)NC(=O)[C@H](CC(C)C)NC(=O)[C@H](CCC(=O)O)NC(=O)[C@H](CO)NC(=O)[C@H](C)NC(=O)[C@H](CCC(=O)O)NC(=O)CCCCCCCCCCCCC(=O)O)[C@@H](C)O)C(=O)NCC(=O)N[C@@H](CCCNC(=N)N)C(=O)N[C@@H](CC(C)C)C(=O)N[C@@H](CO)C(=O)N[C@@H](C)C(=O)N[C@@H](CCC(=O)O)C(=O)N[C@@H](CC(C)C)C(=O)N[C@@H](Cc1cnc[nH]1)C(=O)N[C@@H](CCC(=O)O)C(=O)N[C@@H](CC(C)C)C(=O)N[C@@H](C)C(=O)N[C@H](C(=O)N[C@@H](CC(C)C)C(=O)N1CCC[C@H]1C(=O)N[C@@H](CCCNC(=N)N)C(=O)N[C@H](C(=O)N[C@@H](CCC(=O)O)C(=O)N[C@H](C(=O)NCC(=O)N1CCC[C@H]1C(=O)N[C@@H](CCC(=O)O)C(=O)N[C@@H](CO)C(=O)N1CCC[C@H]1C(N)=O)[C@@H](C)O)[C@@H](C)O)[C@@H](C)O` [Ex. #4, [N-terminal(C14 diacid)]mimylin] ({C14 diacid}-EASELSTAALGRLSAELHELATLPRTETGPESP-NH2), the Solubility result in data set [1] (pH 3.0), in data set [1] (pH 4.0), in data set [1] (pH 5.0), in data set [1] (pH 6.0), in data set [1] (pH 6.5) and in data set [1] (pH 7.0) was “≧200 μM” each time. For the same molecule, the Solubility result in data set [1] (pH 7.5) and in data set [1] (pH 8.0) was “≧200 μM” each time. The “PK mini pig iv T½” value in data set [3] is given as 2 h. For the same molecule, the “PK rat iv T½” value in data set [2] stood at 3 h. In addition, the “PK rat sc T½” value in data set [2] is 3 h.

In the case of `CC(C)C[C@H](NC(=O)[C@H](C)NC(=O)[C@H](C)NC(=O)[C@@H](NC(=O)[C@H](CO)NC(=O)[C@H](CC(C)C)NC(=O)[C@H](CCC(=O)O)NC(=O)[C@H](CO)NC(=O)[C@H](C)NC(=O)[C@H](CCC(=O)O)NC(=O)CCCCCCCCCCCCCCC(=O)O)[C@@H](C)O)C(=O)NCC(=O)N[C@@H](CCCNC(=N)N)C(=O)N[C@@H](CC(C)C)C(=O)N[C@@H](CO)C(=O)N[C@@H](C)C(=O)N[C@@H](CCC(=O)O)C(=O)N[C@@H](CC(C)C)C(=O)N[C@@H](Cc1cnc[nH]1)C(=O)N[C@@H](CCC(=O)O)C(=O)N[C@@H](CC(C)C)C(=O)N[C@@H](C)C(=O)N[C@H](C(=O)N[C@@H](CC(C)C)C(=O)N1CCC[C@H]1C(=O)N[C@@H](CCCNC(=N)N)C(=O)N[C@H](C(=O)N[C@@H](CCC(=O)O)C(=O)N[C@H](C(=O)NCC(=O)N1CCC[C@H]1C(=O)N[C@@H](CCC(=O)O)C(=O)N[C@@H](CO)C(=O)N1CCC[C@H]1C(N)=O)[C@@H](C)O)[C@@H](C)O)[C@@H](C)O` [compound 3, [N-terminal(C16 diacid)]mimylin] ({C16 diacid}-EASELSTAALGRLSAELHELATLPRTETGPESP-NH2), the Solubility result in data set [1] (pH 3.0), in data set [1] (pH 4.0), in data set [1] (pH 5.0), in data set [1] (pH 6.0), in data set [1] (pH 6.5) and in data set [1] (pH 7.0) was “≧200 μM” each time. Also, the Solubility entry in data set [1] (pH 7.5) and in data set [1] (pH 8.0) was “≧200 μM” in each case. For the same molecule, the “PK mini pig iv T½” value in data set [3] was found to be 17 h. In addition, the “PK rat iv T½” value in data set [2] amounted to 3 h. For the same molecule, the “PK rat sc T½” value in data set [2] is 3 h.
